According to publication PMC12040169 (PLOS Biology, 2025):

Experiment: in vitro
Conditions: human, hela cells, % viability

Row | Compound | viability at 28.5 h, 10 µM [%]
1 | O=C(Cc1ccc(F)cc1)N1CCCC(c2nccnc2-c2cccc(C(F)(F)F)c2)C1 (stereo not drawn) [CBK286210] | 99.8
2 | O=C(COc1ccc(F)cc1)N1CCCC1c1cccc(Cc2ccccc2)n1 (stereo not drawn) [CBK286214] | 105
3 | O=C(C1CCCC1)N1CCCC(c2nccnc2-c2cccc(C(F)(F)F)c2)C1 (stereo not drawn) [CBK286221] | 110
4 | O=C(c1cccnc1)N1CCC(c2cccc(Cc3ccc(C(F)(F)F)cc3)n2)CC1 [CBK286222] | 95.4
5 | O=C(Cc1ccccn1)N1CCC(c2cccc(Cc3ccc(C(F)(F)F)cc3)n2)CC1 [CBK286224] | 101
6 | COc1ccc(Cc2cccc(C3CCN(C(=O)Cc4ccc(F)cc4)CC3)n2)cc1 [CBK286225] | 95.6
7 | COc1ccccc1Cc1cccc(C2CCN(C(=O)Cc3c[nH]c4ccccc34)CC2)n1 [CBK286226] | 92.8
8 | COc1ccccc1Cc1cccc(C2CCN(CC(=O)Nc3nccs3)CC2)n1 [CBK286227] | 95.1
9 | O=S(=O)(c1ccc(F)cc1)N1CCCC1c1cccc(Cc2ccccc2)n1 (stereo not drawn) [CBK286231] | 97.3
10 | COc1ccc(CC(=O)N2CCC(c3cccc(Cc4ccccc4C)n3)CC2)cc1 [CBK286232] | 93.5
11 | COc1ccc(CC(=O)N2CCCC2c2cccc(Cc3ccc(F)cc3)n2)cc1 (stereo not drawn) [CBK286233] | 89.1
12 | COc1ccccc1Cc1cccc(C2CCN(C(=O)c3ccc(F)cc3)CC2)n1 [CBK286237] | 108
13 | COc1ccccc1Cc1cccc(C2CCCN2C(=O)CCc2ccc(F)cc2)n1 (stereo not drawn) [CBK286238] | 101
14 | COc1ccccc1Cc1cccc(C2CCCN2C(=O)c2ccc(F)cc2)n1 (stereo not drawn) [CBK286239] | 99.1
15 | COc1ccccc1Cc1cccc(C2CCN(C(=O)Cc3ccccc3)CC2)n1 [CBK286240] | 88.1
16 | Cc1cccc(-c2nccnc2C2CCCN(C(=O)COc3ccc(F)cc3)C2)c1 (stereo not drawn) [CBK286241] | 88.1
17 | Cn1cc(CN2CCCC(c3cccc(Cc4ccc(Cl)cc4)n3)C2)cn1 (stereo not drawn) [CBK286242] | 81.8
18 | CCC(=O)N1CCCC1c1nc(C)c2c(n1)N(CCc1ccccc1OC)CCC2 (stereo not drawn) [CBK286246] | 95.4
19 | O=C(Cn1cc(C(=O)NC2CCCC2)ccc1=O)NCC1(c2ccccc2)CCCC1 [CBK286248] | 94.7
20 | O=S(=O)(c1ccc(F)cc1)N1CCCC1c1cccc(Cc2ccc(F)cc2)n1 (stereo not drawn) [CBK286249] | 88
21 | CCn1cc(CN2CCOC(c3cccc(-c4ccc(OC)cc4)n3)C2)c(C)n1 (stereo not drawn) [CBK286250] | 84.4

Row | Compound | viability at 28.5 h, 10 µM [%]
22 | COc1cccc(-c2cnc(N(C)C)nc2C2CCCN2Cc2ccc3ncccc3c2)c1 (stereo not drawn) [CBK286251] | 85.5
23 | Cc1cc(C)nc(N2CCC(CC(=O)N3CCCCC3CN3CCCC3)CC2)n1 (stereo not drawn) [CBK286254] | 95.6
24 | CCC(c1cccc(OC)c1)N(C)C(=O)CC1CCN(c2nc(C)cc(C)n2)CC1 (stereo not drawn) [CBK286255] | 99.7
25 | Cc1nc(C2(O)CCCN(C3CCCC3)CC2)sc1COc1ccc(F)c(F)c1 (stereo not drawn) [CBK286259] | 89.7
26 | O=C(c1sc2ccccc2c1C1CCN(Cc2ccccc2F)C1)N1CCOCC1 (stereo not drawn) [CBK286260] | 103
27 | CC(CN(C)C(=O)CC1CCN(C(=O)CC2CCCCC2)CC1)c1ccccc1 (stereo not drawn) [CBK286268] | 97.9
28 | NC(=O)C1(Cc2cccc(-c3cccs3)c2)CCN(C(=O)Cc2ccccc2)CC1 [CBK286272] | 84.8
29 | CNC(=O)C1(Cc2ccccc2-c2ccccc2)CCN(C(=O)Cc2ccc(C)cc2)CC1 [CBK286274] | 88.4
30 | COCc1ccc(C(=O)N2CCC(Cc3ccccc3-c3cccs3)(C(N)=O)CC2)cc1 [CBK286276] | 102
31 | COc1ccc(CN2CCC(Cc3ccccc3-c3cccc(F)c3)(C(N)=O)CC2)cc1 [CBK286277] | 99.8
32 | COc1cccc(C(NC(=O)c2cc(CN3CCOCC3)c(C)o2)c2ccccc2)c1 (stereo not drawn) [CBK286279] | 93.4
33 | O=C1CCCC[C@@H]2[C@@H](N1)[C@H](c1ccccc1)CN2Cc1ccc2ccccc2n1 [CBK286281] | 93.1
34 | O=C(Cc1cccs1)N1CCC(c2nnc(-c3ccccc3)c(-c3ccccc3)n2)CC1 [CBK286283] | 98.8
35 | COc1ccc(OC)c(C(O)CN2CCCC(C(=O)N3CCCCCC3)C2)c1 (stereo not drawn) [CBK286286] | 87.5
36 | O=C(c1ccccc1)N1C[C@H](c2ccc(F)cc2)[C@H]2CN(Cc3ccccc3F)CC[C@H]21 [CBK286289] | 90.1
37 | COc1ccc(CN2CC[C@@H]3[C@H](C2)[C@@H](c2ccc(F)cc2)CN3C(=O)c2ccccc2)cc1 [CBK286290] | 92.3
38 | O=C(NCc1nnc(-c2cccs2)o1)c1ccccc1-c1ccccc1 [CBK286293] | 112
39 | O=C(NCc1nnc(-c2cccs2)o1)C(c1ccccc1)c1ccccc1 [CBK286294] | 92.6
40 | O=C(NCc1nnc(-c2cccs2)o1)c1cccc(-c2ccc(F)cc2)c1 [CBK286296] | 86.9
41 | OC1CCN(Cc2c([C@H]3CCCO3)[nH]c3ncccc23)CC1 [CBK286301] | 110
42 | Cc1[nH]c(=O)[nH]c(=O)c1CC(=O)N1CCc2ncc(Cl)cc2C1 [CBK286302] | 101

Row | Compound | viability at 28.5 h, 10 µM [%]
43 | CC(C)C(=O)Nc1ccc2nc(-c3ccoc3)c(-c3ccoc3)nc2c1 [CBK286304] | 96.9
44 | CC(C)N1CC(C(=O)N(C)C)C2(CCc3ccccc3C2O)C1 (stereo not drawn) [CBK286305] | 89.1
45 | O=C1NC2(CCN(C(=O)Cc3ccc(-c4ccccc4)cc3)CC2)Nc2ccccc21 [CBK286309] | 101
46 | O=C(NCc1cccs1)C1(Cc2ccccc2-c2coc3ccccc23)CCOCC1 [CBK286310] | 108
47 | O=C1NC2(CCN(C(=O)CCc3ccc(-c4ccccc4)o3)CC2)Nc2ccccc21 [CBK286316] | 106
48 | Cc1sc2nc(Cc3ccccc3)n(C3CCN(C(=O)c4ccco4)CC3)c(=O)c2c1C [CBK286317] | 97.3
49 | CC1CCCCN1C(=O)CN1C(=O)[C@H]2CCCN2C(=O)c2ccccc21 (stereo partly drawn) [CBK286320] | 99.4
50 | COc1ccc(CNC(=O)CN2C(=O)[C@@H]3CCCN3C(=O)c3ccccc32)cc1 [CBK286322] | 89.7
51 | OC(CN1CCC(O)(c2ccc(C(F)(F)F)cc2)CC1)c1ccccc1 (stereo not drawn) [CBK286323] | 102
52 | OC(CN1CCC(O)(c2cccc(C(F)(F)F)c2)CC1)c1ccccc1 (stereo not drawn) [CBK286324] | 109
53 | Cc1cccc(C2(O)CCN(CC(O)c3ccccc3)CC2)c1 (stereo not drawn) [CBK286325] | 106
54 | OC(CN1CCC(O)(c2ccc(F)cc2)CC1)c1ccc(-c2ccccc2)cc1 (stereo not drawn) [CBK286328] | 90
55 | OC(CN1CCC2(CC1)CC(O)c1cc(F)ccc1O2)c1ccc(-c2ccccc2)cc1 (stereo not drawn) [CBK286331] | 102
56 | Cc1ccccc1C1(O)CCN(CC(O)c2ccc3c(c2)OCCCO3)CC1 (stereo not drawn) [CBK286332] | 103
57 | COc1ccccc1C1(O)CCN(CC(O)c2ccc(C(C)(C)C)cc2)CC1 (stereo not drawn) [CBK286335] | 96.2
58 | CC(C)(C)c1ccc(C(O)CN2CCC(O)(c3ccc4c(c3)OCO4)CC2)cc1 (stereo not drawn) [CBK286336] | 89.3
59 | CCC(NC(=O)C(c1cccs1)c1cccs1)c1ccc(F)cc1 (stereo not drawn) [CBK286339] | 93.4
60 | O=C(NCc1nc(-c2ccccc2)no1)C(c1cccs1)c1cccs1 [CBK286340] | 109
61 | Cc1[nH]c(=O)[nH]c(=O)c1CC(=O)N1Cc2cc(Cl)ccc2OC2(CCOCC2)C1 [CBK286341] | 93
62 | COc1ccccc1CN(CCN(C)C)C(=O)Cc1c(C)[nH]c(=O)[nH]c1=O [CBK286343] | 94.2
63 | Cc1csc(C(Cc2cccs2)NC(=O)Cc2c(C)[nH]c(=O)[nH]c2=O)n1 (stereo not drawn) [CBK286345] | 89.7

Row | Compound | viability at 28.5 h, 10 µM [%]
64 | COc1ccc2c(c1)OC1(CCN(CC(O)c3ccc(-c4ccccc4)cc3)CC1)CC2O (stereo not drawn) [CBK286346] | 91.2
65 | COc1ccccc1-c1ccc(CN2CCC(NC(C)=O)(c3ccc(F)cc3)CC2)cc1 [CBK286349] | 90
66 | CC(C)n1c(=O)oc2cc(S(=O)(=O)NC(c3ccccc3)c3ccccc3)ccc21 [CBK286350] | 91.7
67 | O=C(N[C@H]1CC[C@H](O)CC1)C1(Cc2cc(-c3ccc(F)cc3F)no2)CCOCC1 [CBK286352] | 94.9
68 | Cc1ccc(C(Cc2ccsc2)NS(=O)(=O)c2ccc3[nH]c(=O)[nH]c(=O)c3c2)nc1 (stereo not drawn) [CBK286354] | 88.6
69 | Cn1c(=O)oc2cc(S(=O)(=O)Nc3cccc(CCc4ccccn4)c3)ccc21 [CBK286357] | 102
70 | COc1ccc(CN2CCc3cc(OC)c(OC)cc3C2c2ccccc2)cc1CO (stereo not drawn) [CBK286358] | 92.2
71 | COc1cc2c(cc1OC)C(c1ccccc1)N(Cc1ccc(OCCO)cc1)CC2 (stereo not drawn) [CBK286359] | 80
72 | O=c1[nH]c(=O)c2cc(S(=O)(=O)NCCN3CCc4ccccc43)ccc2[nH]1 [CBK286360] | 91.5
73 | Cn1ccc2cc(NS(=O)(=O)c3ccc4[nH]c(=O)[nH]c(=O)c4c3)ccc21 [CBK286364] | 95.4
74 | O=C1CCc2cc(S(=O)(=O)Nc3ccc(OCc4ccccc4)cc3)ccc2N1 [CBK286365] | 90
75 | O=C1CCc2cc(S(=O)(=O)NC(c3ccccc3)c3ccccc3)ccc2N1 [CBK286367] | 93.4
76 | COc1ccc(-c2ccccc2)cc1NS(=O)(=O)c1ccc2c(c1)CCC(=O)N2 [CBK286368] | 100
77 | COc1ccc(-c2ccccc2NS(=O)(=O)c2ccc3c(c2)CCC(=O)N3)cc1 [CBK286370] | 96.8
78 | O=C1CCc2cc(S(=O)(=O)Nc3cccc(-c4ccc(F)cc4)c3)ccc2N1 [CBK286371] | 102
79 | COc1cccc(-c2ccc(NS(=O)(=O)c3ccc4c(c3)CCC(=O)N4)cc2)c1 [CBK286373] | 87.1
80 | O=c1[nH]c(=O)c2cc(S(=O)(=O)NC(c3ccccc3)c3ccccc3)ccc2[nH]1 [CBK286375] | 89.4
81 | O=c1[nH]c(=O)c2cc(S(=O)(=O)Nc3ccccc3Cc3ccccc3)ccc2[nH]1 [CBK286377] | 94.3
